Experimental data reported in US11596644B2, “Method for treating post-prandial hypoglycemia” (AVOLYNT, priority 2018, dated 2023).

How the values were obtained:
rat SGLT1 = molecular target: T1, rat SGLT1 (Rattus norvegicus, UniProt P53790); assay: Inhibition of radiolabeled α-MG uptake into COS-7 cells transfected with rat SGLT1 (Dixon plot); format: cell-based
T1 construct: expressed in transfected cells; host or cells: COS-7
T1 sequence (P53790 1-665): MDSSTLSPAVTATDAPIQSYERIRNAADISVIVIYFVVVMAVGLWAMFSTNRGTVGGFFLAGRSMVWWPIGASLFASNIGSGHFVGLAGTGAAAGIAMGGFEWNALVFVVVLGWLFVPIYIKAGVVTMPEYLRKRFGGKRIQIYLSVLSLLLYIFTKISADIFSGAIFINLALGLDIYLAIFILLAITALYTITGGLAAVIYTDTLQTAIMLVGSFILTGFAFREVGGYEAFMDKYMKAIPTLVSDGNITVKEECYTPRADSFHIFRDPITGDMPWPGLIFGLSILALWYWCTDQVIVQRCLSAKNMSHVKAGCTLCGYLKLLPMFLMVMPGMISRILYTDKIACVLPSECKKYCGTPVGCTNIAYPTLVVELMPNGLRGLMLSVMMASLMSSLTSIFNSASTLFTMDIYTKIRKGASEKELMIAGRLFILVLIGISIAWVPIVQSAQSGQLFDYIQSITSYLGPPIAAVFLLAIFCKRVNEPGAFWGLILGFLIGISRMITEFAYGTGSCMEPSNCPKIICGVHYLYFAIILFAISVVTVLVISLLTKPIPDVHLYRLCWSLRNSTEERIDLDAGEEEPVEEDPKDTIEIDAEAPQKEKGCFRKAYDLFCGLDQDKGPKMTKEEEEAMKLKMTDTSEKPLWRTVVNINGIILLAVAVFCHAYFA
Protocol: Selective inhibition study. Inhibition constants (Ki) of mizagliflozin for rat and human SGLT1 and SGLT2 were determined measuring concentration-dependent effects of test compound on uptake of radiolabeled methyl-α-D-glucopyranoside (α-MG) into COS-7 cells transiently transfected with cloned SGLT1 or SGLT2. Mizagliflozin was assessed at concentrations from 1 to 30 μM and 3 to 100 μM for human and rat SGLT2, respectively. It was assessed at concentrations from 30 nM to 1 μM and 10 to 30 nM for human and rat SGLT1, respectively. α-MG test concentrations were 0.3 and 1 mM. Data were analyzed and Ki determined using Dixon plots of initial transport rates. […] Inhibition constants were also determined for human SGLT1 and SGLT2.

[1] = tested on: Diet-induced obese (DIO) marmoset; assay: Two-week dosing and OGTT in diet-induced obese marmosets; format: in vivo
Protocol: Study on plasma glucose levels in marmosets. Mizagliflozin was evaluated in the Diet-induced obese (DIO) marmoset, a polygenic non-human primate model of obesity. Rimonabant, a canabinoid receptor (CB-1) antagonist that was marketed by Sanofi-Aventis for weight loss in obese patients, was administered at a maximal effective dose of 20 mg/kg twice daily as a positive control. Mizagliflozin was administered orally twice daily to DIO male marmosets (n=8/group) for 2 weeks at BID doses of 3 and 30 mg/kg/day (or only vehicle, aqueous hydroxypropylmethyl-cellulose 0.1%). Effects on body weight and body composition, and serum chemistry parameters were measured and glucose excursions during post-treatment OGTTs were also determined after administration of an oral loading dose of glucose (2.0 g/kg).

[2] = tested on: healthy adult male volunteers; assay: Repeat dose study in humans, pharmacodynamic parameters after meals; format: in vivo, human; conditions: repeat dosing; for AUC 0-5 GIP / AUC 0-5 GLP-1 (active) / AUC 0-5 Insulin / AUC 0-5 glucose / GIP (peak) / GLP-1 (active) (peak) / Glucose (peak) / Insulin (peak) / Time (h) to peak, GIP / Time (h) to peak, GLP-1 (active) / Time (h) to peak, glucose / Time (h) to peak, insulin: Day 3 after breakfast
Protocol: Repeat dose study in humans. Oral doses of 2 mg, 5 mg, 10 mg, 20 mg, of mizagliflozin, placebo or miglitol 50 mg per dose three times daily to healthy adult male volunteers by a randomized, placebo-controlled, parallel-group, double-blind comparison method. The dose was orally administered with approximately 150 mL of water once daily immediately before breakfast on Days 1 and 13, and three times daily immediately before every meal on Days 3 to 12.
Changes in the following parameters and ΔAUC from 0 to t* hours after breakfast, lunch, and evening meal were measured: Blood glucose level, Serum insulin concentration, Blood active GLP-1 concentration, and Blood total GIP concentration, where t=0.5, 1, 1.5, 2, and 3 (t=0.5, 1, 1.5, 2, 3, and 5 only after breakfast).
In the miglitol group, hyperglycemia was suppressed after breakfast, lunch, and evening meal, as compared to the placebo group. […] These pharmacodynamic effects more or less persisted during 10-day repeated administration. There was no correlation between plasma mizagliflozin concentration and the pharmacodynamic effects. Measurements in Tables 5-8 were performed on Day 3 after breakfast.

- mode of inhibition of SGLT1 (Dixon plot intersection pattern) (rat SGLT1; rat SGLT1): competitive with substrate
- Ki (rat SGLT1; α-MG 0.3 and 1 mM, COS-7 cells): 31.2 nM
- signs of diarrhea ([1]; 2 weeks dosing): No signs of diarrhea were observed
Structure (SMILES): Cc1cc(OCCCNCC(C)(C)C(N)=O)ccc1Cc1c(O[C@@H]2O[C@H](CO)[C@@H](O)[C@H](O)[C@H]2O)n[nH]c1C(C)C [mizagliflozin, 3-(3-{4-[3-(β-D-glucopyranosyloxy)-5-isopropyl-1H-pyrazol-4-ylmethyl-]-3-methylphenoxy}propylamino)-2,2-dimethylpropionamide]
- effects on body weight, body composition (fat or lean mass) and serum chemistry parameters ([1]; 3 and 30 mg/kg, oral twice daily, 2 weeks): no significant effects
- glucose excursions during post-treatment OGTT ([1]; two weeks dosing, glucose 2.0 g/kg): blunting of the glucose excursions
- AUC 0-5 GIP ([2]; 2 mg per dose): 1096.21 pg·h/mL
- AUC 0-5 GLP-1 (active) ([2]; 2 mg per dose): 21.21 pmol·h/L
- AUC 0-5 Insulin ([2]; 2 mg per dose): 166.61 uU*h/ml
- AUC 0-5 glucose ([2]; 2 mg per dose): 550.6 mg·h/dL
- GIP (peak) ([2]; 2 mg per dose): 285 pg/mL
- GLP-1 (active) (peak) ([2]; 2 mg per dose): 5.98 pmol/L
- Glucose (peak) ([2]; 2 mg per dose): 131.6 mg/dL
- Insulin (peak) ([2]; 2 mg per dose): 58.05 uU/ml
- Time (h) to peak, GIP ([2]; 2 mg per dose): 3 h
- Time (h) to peak, GLP-1 (active) ([2]; 2 mg per dose): 0.5 h
- Time (h) to peak, glucose ([2]; 2 mg per dose): 1 h
- Time (h) to peak, insulin ([2]; 2 mg per dose): 1.5 h
- AUC 0-5 GIP ([2]; 5 mg per dose): 1057.89 pg·h/mL
- AUC 0-5 GLP-1 (active) ([2]; 5 mg per dose): 22.36 pmol·h/L
- AUC 0-5 Insulin ([2]; 5 mg per dose): 146.08 uU*h/ml
- AUC 0-5 glucose ([2]; 5 mg per dose): 524.6 mg·h/dL
- GIP (peak) ([2]; 5 mg per dose): 280.88 pg/mL
- GLP-1 (active) (peak) ([2]; 5 mg per dose): 5.95 pmol/L
- Glucose (peak) ([2]; 5 mg per dose): 118.6 mg/dL
- Insulin (peak) ([2]; 5 mg per dose): 44 uU/ml
- Time (h) to peak, GIP ([2]; 5 mg per dose): 3 h
- Time (h) to peak, GLP-1 (active) ([2]; 5 mg per dose): 0.5 h
- Time (h) to peak, glucose ([2]; 5 mg per dose): 1.5 h
- Time (h) to peak, insulin ([2]; 5 mg per dose): 2 h
- AUC 0-5 GIP ([2]; 10 mg per dose): 839.7 pg·h/mL
- AUC 0-5 GLP-1 (active) ([2]; 10 mg per dose): 41.12 pmol·h/L
- AUC 0-5 Insulin ([2]; 10 mg per dose): 176.7 uU*h/ml
- AUC 0-5 glucose ([2]; 10 mg per dose): 541.3 mg·h/dL
- GIP (peak) ([2]; 10 mg per dose): 240.75 pg/mL
- GLP-1 (active) (peak) ([2]; 10 mg per dose): 10.01 pmol/L
- Glucose (peak) ([2]; 10 mg per dose): 121.3 mg/dL
- Insulin (peak) ([2]; 10 mg per dose): 55.13 uU/ml
- Time (h) to peak, GIP ([2]; 10 mg per dose): 3 h
- Time (h) to peak, GLP-1 (active) ([2]; 10 mg per dose): 0.5 h
- Time (h) to peak, glucose ([2]; 10 mg per dose): 1.5 h
- Time (h) to peak, insulin ([2]; 10 mg per dose): 1 h
- AUC 0-5 GIP ([2]; 20 mg per dose): 755.01 pg·h/mL
- AUC 0-5 GLP-1 (active) ([2]; 20 mg per dose): 24.74 pmol·h/L
- AUC 0-5 Insulin ([2]; 20 mg per dose): 142.25 uU*h/ml
- AUC 0-5 glucose ([2]; 20 mg per dose): 522.4 mg·h/dL
- GIP (peak) ([2]; 20 mg per dose): 217.15 pg/mL
- GLP-1 (active) (peak) ([2]; 20 mg per dose): 6.01 pmol/L
- Glucose (peak) ([2]; 20 mg per dose): 121 mg/dL
- Insulin (peak) ([2]; 20 mg per dose): 47.69 uU/ml
- Time (h) to peak, GIP ([2]; 20 mg per dose): 3 h
- Time (h) to peak, GLP-1 (active) ([2]; 20 mg per dose): 0.5 h
- Time (h) to peak, glucose ([2]; 20 mg per dose): 1.5 h
- Time (h) to peak, insulin ([2]; 20 mg per dose): 1.5 h
- active GLP-1 concentration ([2]; healthy adult male volunteers): a tendency toward increase in active GLP-1 concentration was seen
- hyperglycemia after breakfast, lunch, and evening meal ([2]; healthy adult male volunteers): suppressed after breakfast, lunch, and evening meal on a level equivalent to the miglitol group
- insulin secretion ([2]; healthy adult male volunteers): inhibition of insulin secretion along with inhibition of hyperglycemia was seen the same as in the miglitol group
- total GIP concentration ([2]; healthy adult male volunteers): increase in total GIP concentration was seen on a level equivalent to the miglitol group
- total GLP-1 concentration ([2]; healthy adult male volunteers): increase in total GLP-1 concentration was seen on a level equivalent to the miglitol group
